# Legend:
# Type in all cases: functional, cell-based
# HCT-116 = assay: Antiproliferative activity against human HCT116 cells incubated for 48 hrs by MTT assay; conditions: HCT-116, 48 h
# RKO = assay: Antiproliferative activity against human RKO cells incubated for 48 hrs by MTT assay
# A2780 = assay: Antiproliferative activity against human A2780 cells incubated for 48 hrs by MTT assay; conditions: A2780, 48 h
# HeLa = assay: Antiproliferative activity against human HeLa cells incubated for 48 hrs by MTT assay
# BGC-823 = assay: Antiproliferative activity against human BGC823 cells incubated for 48 hrs by MTT assay; conditions: BGC-823, 48 h
# A549 = assay: Antiproliferative activity against human A549 cells incubated for 48 hrs by MTT assay; conditions: A549, 48 h
# NCI-H1650 = assay: Antiproliferative activity against human NCI-H1650 cells incubated for 48 hrs by MTT assay; conditions: NCI-H1650, 48 h
IC50 (HCT-116) [µM],IC50 (A2780) [µM],IC50 (HeLa) [µM],IC50 (BGC-823) [µM],IC50 (A549) [µM],IC50 (NCI-H1650) [µM],SMILES,IC50 (RKO) [µM]
> 10,8.2,1.43,9.42,> 10,> 10,CCCCOc1ccc2c(Nc3cccc(F)c3)ccnc2c1,> 10
> 10,> 10,> 10,7.45,> 10,> 10,COc1ccc2c(Nc3cccc([N+](=O)[O-])c3)ccnc2c1,> 10
> 10,1.47,0.52,8.39,> 10,> 10,CC(C)Oc1ccc2c(Nc3cccc([N+](=O)[O-])c3)ccnc2c1,> 10
> 10,> 10,> 10,> 10,> 10,> 10,O=[N+]([O-])c1cccc(Nc2ccnc3cc(Br)ccc23)c1,> 10
> 10,> 10,> 10,> 10,> 10,> 10,COc1ccc2c(Nc3cccc(O)c3)ccnc2c1,> 10
> 10,> 10,> 10,> 10,> 10,> 10,COc1cccc(Nc2ccnc3cc(OC)ccc23)c1,> 10
> 10,> 10,> 10,> 10,> 10,> 10,CCCCCCCCOc1ccc2c(Nc3cccc([N+](=O)[O-])c3)ccnc2c1,> 10
> 10,> 10,> 10,> 10,> 10,> 10,COc1ccc2c(Nc3ccc(Cl)c(Cl)c3)ccnc2c1,> 10
> 10,> 10,> 10,> 10,> 10,> 10,COc1cccc(Nc2ccnc3cc(OCc4ccccc4)ccc23)c1,> 10
6.83,5.17,4.35,6.11,> 10,9.56,CCCCOc1ccc2c(Nc3cccc([N+](=O)[O-])c3)ccnc2c1,7.81
> 10,0.65,0.23,4.73,> 10,> 10,COc1cccc(Nc2ccnc3cc(OC(C)C)ccc23)c1,> 10
> 10,> 10,3.42,> 10,> 10,> 10,CCOc1ccc2c(Nc3cccc([N+](=O)[O-])c3)ccnc2c1,> 10
> 10,> 10,> 10,> 10,> 10,> 10,Fc1ccc(COc2ccc3c(Nc4cccc(F)c4)ccnc3c2)cc1,> 10
> 10,> 10,> 10,> 10,> 10,> 10,COc1cccc(Nc2ccnc3cc(OCc4ccc(F)cc4)ccc23)c1,> 10
> 10,6.77,0.22,3.83,> 10,> 10,C=CCOc1ccc2c(Nc3cccc([N+](=O)[O-])c3)ccnc2c1,> 10
> 10,> 10,> 10,> 10,> 10,> 10,Clc1cccc(Nc2ccnc3cc(Br)ccc23)c1,> 10
> 10,> 10,> 10,> 10,> 10,> 10,Fc1cccc(Nc2ccnc3cc(F)ccc23)c1,> 10
> 10,> 10,> 10,> 10,> 10,> 10,Fc1cccc(Nc2ccnc3cc(Cl)ccc23)c1,> 10
> 10,8.21,7.72,> 10,> 10,8.13,CCCCCCCCOc1ccc2c(Nc3cccc(OC)c3)ccnc2c1,> 10
> 10,> 10,> 10,> 10,> 10,> 10,COc1cccc(Nc2ccnc3cc(Cl)ccc23)c1,> 10
> 10,> 10,> 10,> 10,> 10,> 10,COc1ccc2c(Nc3cccc(F)c3)ccnc2c1,> 10
7.68,8.87,6.56,7.26,> 10,8.69,CCCCOc1ccc2c(Nc3cccc(OC)c3)ccnc2c1,8.1

IC50 (HCT-116) [µM],IC50 (A2780) [µM],IC50 (HeLa) [µM],IC50 (BGC-823) [µM],IC50 (A549) [µM],IC50 (NCI-H1650) [µM],SMILES,IC50 (RKO) [µM]
> 10,1.19,0.31,> 10,> 10,> 10,C=CCOc1ccc2c(Nc3cccc(F)c3)ccnc2c1,> 10
> 10,> 10,> 10,> 10,> 10,> 10,COc1cccc(Nc2ccnc3cc(Br)ccc23)c1,> 10
> 10,> 10,> 10,> 10,> 10,> 10,Fc1cccc(Nc2ccnc3cc(Br)ccc23)c1,> 10
7.46,4.46,4.13,8.32,5.09,6.01,O=[N+]([O-])c1cccc(Nc2ccnc3cc(OCCCc4ccccc4)ccc23)c1,8.29
> 10,> 10,> 10,> 10,> 10,> 10,Fc1cccc(Nc2ccnc3cc(OCc4ccccc4)ccc23)c1,> 10
9.3,9.75,4.3,5.96,9.52,9.45,CCCCCCCCOc1ccc2c(Nc3cccc(F)c3)ccnc2c1,9.54
> 10,8.06,2.2,6.65,> 10,> 10,C=CCOc1ccc2c(Nc3cccc(OC)c3)ccnc2c1,> 10
> 10,> 10,> 10,> 10,> 10,> 10,O=[N+]([O-])c1cccc(Nc2ccnc3cc(F)ccc23)c1,> 10
> 10,> 10,0.84,> 10,> 10,> 10,CCCCOc1ccc2c(Nc3cccc(Br)c3)ccnc2c1,> 10
> 10,> 10,> 10,> 10,> 10,> 10,COc1cccc(Nc2ccnc3cc(F)ccc23)c1,> 10
> 10,> 10,> 10,> 10,> 10,> 10,COc1ccc2c(Nc3cccc(Br)c3)ccnc2c1,> 10
> 10,> 10,> 10,> 10,> 10,> 10,O=[N+]([O-])c1cccc(Nc2ccnc3cc(Cl)ccc23)c1,> 10
> 10,> 10,0.68,9.85,> 10,> 10,CCOc1ccc2c(Nc3cccc(F)c3)ccnc2c1,> 10
8.76,9.19,5.39,8.13,9.49,9.54,O=[N+]([O-])c1cccc(Nc2ccnc3cc(OCc4ccccc4)ccc23)c1,9.68
> 10,0.59,0.2,> 10,> 10,> 10,CC(C)Oc1ccc2c(Nc3cccc(F)c3)ccnc2c1,> 10
> 10,> 10,> 10,> 10,> 10,> 10,Fc1ccc2c(Nc3cccc(Cl)c3)ccnc2c1,> 10
> 10,9.55,0.41,> 10,> 10,> 10,CCOc1ccc2c(Nc3cccc(OC)c3)ccnc2c1,> 10
> 10,4.62,0.25,> 10,> 10,> 10,Fc1cccc(Nc2ccnc3cc(OCCCc4ccccc4)ccc23)c1,> 10
> 10,> 10,> 10,> 10,> 10,> 10,Brc1cccc(Nc2ccnc3cc(Br)ccc23)c1,> 10
> 10,> 10,> 10,> 10,> 10,> 10,Fc1ccc2c(Nc3cccc(Br)c3)ccnc2c1,> 10
8.17,6.51,5.79,9.45,7.3,9.35,O=[N+]([O-])c1cccc(Nc2ccnc3cc(OCc4ccc(F)cc4)ccc23)c1,8.7
